Our source for the IC50 values is US20260250290A1 (BRISTOL-MYERS SQUIBB COMPANY, priority 2023, published 2026).

Molecules are shown by their SMILES.

This assay deals with T1, full length SGK1 (Homo sapiens, UniProt O00141).
T1 construct: 125 μM full length SGK1 (Life Technologies Part #PR7358A); purchased Life Technologies PR7358A
T1 sequence (O00141 1-431): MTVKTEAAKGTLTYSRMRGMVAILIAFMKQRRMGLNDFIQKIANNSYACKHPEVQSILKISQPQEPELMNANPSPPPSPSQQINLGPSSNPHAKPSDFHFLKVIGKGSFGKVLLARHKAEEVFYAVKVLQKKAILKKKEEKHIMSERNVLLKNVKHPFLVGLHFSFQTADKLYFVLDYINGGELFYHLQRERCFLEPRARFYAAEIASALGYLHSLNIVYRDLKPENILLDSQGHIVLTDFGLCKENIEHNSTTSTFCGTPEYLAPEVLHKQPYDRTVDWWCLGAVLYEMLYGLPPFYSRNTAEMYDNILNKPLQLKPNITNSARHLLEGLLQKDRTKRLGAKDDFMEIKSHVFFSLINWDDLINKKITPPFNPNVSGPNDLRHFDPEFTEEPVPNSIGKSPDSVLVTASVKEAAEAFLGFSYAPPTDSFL
Nature of the assay: SGK1 inhibition Assay A (Caliper LabChip electrophoretic separation of fluorescent peptide substrate and phosphorylated product). In kind it is biochemical. To be noted: Assay A; 20 μM ATP, 40 min incubation; read-out: SGK1 IC50.

The term IC50 denotes the point on the concentration scale where inhibition reaches its midpoint. In the case of `CC(=O)N1CC=C(c2cc(N3CCC[C@@H](NC(=O)c4cc(-c5ccccc5)ncn4)C3)c3c(N)ncnn23)C1` [Example 492, (R)-N-(1-(7-(1-acetyl-2,5-dihydro-1H-pyrrol-3-yl)-4-aminopyrrolo[2,1-f][1,2,4]triazin-5-yl)piperidin-3-yl)-6-phenylpyrimidine-4-carboxamide], the IC50 worked out at 0.053 µM.
The same measure for `CC(=O)N1CC=C(c2cc(N3CCC[C@@H](NC(=O)c4cc(-c5ccccc5)n[nH]4)C3)c3c(N)ncnn23)C1` [Example 493, (R)-N-(1-(7-(1-acetyl-2,5-dihydro-1H-pyrrol-3-yl)-4-aminopyrrolo[2,1-f][1,2,4]triazin-5-yl)piperidin-3-yl)-3-phenyl-1H-pyrazole-5-carboxamide]: 0.006 µM; for `CC(=O)N1CC=C(c2cc(N3CCC[C@@H](NC(=O)c4ccc(C#N)cc4)C3)c3c(N)ncnn23)C1` [Example 494, (R)-N-(1-(7-(1-acetyl-2,5-dihydro-1H-pyrrol-3-yl)-4-aminopyrrolo[2,1-f][1,2,4]triazin-5-yl)piperidin-3-yl)-4-cyanobenzamide]: 0.038 µM.
In the case of `CC(=O)N1CC=C(c2cc(N3CCC[C@@H](NC(=O)c4cccc(C#N)c4)C3)c3c(N)ncnn23)C1` [Example 495, (R)-N-(1-(7-(1-acetyl-2,5-dihydro-1H-pyrrol-3-yl)-4-aminopyrrolo[2,1-f][1,2,4]triazin-5-yl)piperidin-3-yl)-3-cyanobenzamide] it was 0.087 µM; in that of `COc1cc(C#N)ccc1C(=O)N[C@@H]1CCCN(c2cc(C3=CCN(C(C)=O)C3)n3ncnc(N)c23)C1` [Example 496, (R)-N-(1-(7-(1-acetyl-2,5-dihydro-1H-pyrrol-3-yl)-4-aminopyrrolo[2,1-f][1,2,4]triazin-5-yl)piperidin-3-yl)-4-cyano-2-methoxybenzamide], 0.344 µM.
Take `NC(=O)c1ccc(-c2cc(N3CCC[C@@H](NC(=O)c4ccc(C(F)F)s4)C3)c3c(N)ncnn23)cc1F` [Example 497, (R)-N-(1-(4-amino-7-(4-carbamoyl-3-fluorophenyl)pyrrolo[2,1-f][1,2,4]triazin-5-yl)piperidin-3-yl)-5-(difluoromethyl)thiophene-2-carboxamide]: the IC50 came out at 0.001 µM.
In the case of `COC(=O)N1CC=C(c2cc(N3CCC[C@@H](NC(=O)c4cc5cc(C#N)ccc5[nH]4)C3)c3c(N)ncnn23)C1` [Example 498, Methyl (R)-3-(4-amino-5-(3-(5-cyano-1H-indole-2-carboxamido)piperidin-1-yl)pyrrolo[2,1-f][1,2,4]triazin-7-yl)-2,5-dihydro-1H-pyrrole-1-carboxylate] it was 0.041 µM; in that of `COC(=O)N1CC=C(c2cc(N3CCC[C@@H](NC(=O)c4cc5cc(F)ccc5[nH]4)C3)c3c(N)ncnn23)C1` [Example 499, methyl (R)-3-(4-amino-5-(3-(5-fluoro-1H-indole-2-carboxamido)piperidin-1-yl)pyrrolo[2,1-f][1,2,4]triazin-7-yl)-2,5-dihydro-1H-pyrrole-1-carboxylate], 0.121 µM.
Turning to `COC(=O)N1CC=C(c2cc(N3CCC[C@@H](NC(=O)c4cc5ccc(C(F)(F)F)cc5[nH]4)C3)c3c(N)ncnn23)C1` [Example 500, methyl (R)-3-(4-amino-5-(3-(6-(trifluoromethyl)-1H-indole-2-carboxamido)piperidin-1-yl)pyrrolo[2,1-f][1,2,4]triazin-7-yl)-2,5-dihydro-1H-pyrrole-1-carboxylate], the IC50 was 0.188 µM.
In the case of `CC(=O)N1CC=C(c2cc(N3CCC[C@@H](NC(=O)c4cc(-c5cncnc5)n[nH]4)C3)c3c(N)ncnn23)C1` [Example 501, (R)-N-(1-(7-(1-acetyl-2,5-dihydro-1H-pyrrol-3-yl)-4-aminopyrrolo[2,1-f][1,2,4]triazin-5-yl)piperidin-3-yl)-3-(pyrimidin-5-yl)-1H-pyrazole-5-carboxamide] it was 0.292 µM; in that of `N#Cc1ncc(-c2cc(N3CCC[C@@H](NC(=O)c4ccc(C(F)F)s4)C3)c3c(N)ncnn23)cn1` [Example 502, (R)-N-(1-(4-amino-7-(2-cyanopyrimidin-5-yl)pyrrolo[2,1-f][1,2,4]triazin-5-yl)piperidin-3-yl)-5-(difluoromethyl)thiophene-2-carboxamide], 0.039 µM; in that of `Nc1ncnn2c(-c3ccc(=O)n(CC(F)F)c3)cc(N3CCC[C@@H](NC(=O)c4cc5ccccc5[nH]4)C3)c12` [Example 503, (R)-N-(1-(4-amino-7-(1-(2,2-difluoroethyl)-6-oxo-1,6-dihydropyridin-3-yl)pyrrolo[2,1-f][1,2,4]triazin-5-yl)piperidin-3-yl)-1H-indole-2-carboxamide], 0.009 µM.
In the case of `Nc1ncnn2c(-c3ccc(=O)n(CC(F)F)c3)cc(N3CCC[C@@H](NC(=O)c4cc(-c5ccccc5)n[nH]4)C3)c12` [Example 504, (R)-N-(1-(4-amino-7-(1-(2,2-difluoroethyl)-6-oxo-1,6-dihydropyridin-3-yl)pyrrolo[2,1-f][1,2,4]triazin-5-yl)piperidin-3-yl)-3-phenyl-1H-pyrazole-5-carboxamide], the IC50 was found to be 0.002 µM.
As to `N#Cc1cc(-c2cc(N3CCC[C@@H](NC(=O)c4ccc(C(F)F)s4)C3)c3c(N)ncnn23)ccn1` [Example 505, (R)-N-(1-(4-amino-7-(2-cyanopyridin-4-yl)pyrrolo[2,1-f][1,2,4]triazin-5-yl)piperidin-3-yl)-5-(difluoromethyl)thiophene-2-carboxamide], the IC50 was determined as 0.006 µM.
Take `CN(C)CCn1c(C(=O)N[C@@H]2CCCN(c3cc(-c4ccc(C#N)nc4)n4ncnc(N)c34)C2)cc2ccccc21` [Example 506, (R)-N-(1-(4-amino-7-(6-cyanopyridin-3-yl)pyrrolo[2,1-f][1,2,4]triazin-5-yl)piperidin-3-yl)-1-(2-(dimethylamino)ethyl)-1H-indole-2-carboxamide]: the IC50 was found to be 0.886 µM.
As to `CC(C)Cn1cc(-c2cc(N3CCC[C@@H](NC(=O)c4cc5ccccc5[nH]4)C3)c3c(N)ncnn23)ccc1=O` [Example 507, (R)-N-(1-(4-amino-7-(1-isobutyl-6-ox0-1,6-dihydropyridin-3-yl)pyrrolo[2,1-f][1,2,4]triazin-5-yl)piperidin-3-yl)-1H-indole-2-carboxamide], the IC50 is 0.082 µM.
In the case of `Nc1ncnn2c(-c3cncnc3)cc(N3CCC[C@@H](NC(=O)c4cc5ccccc5[nH]4)C3)c12` [Example 508, (R)-N-(1-(4-amino-7-(pyrimidin-5-yl)pyrrolo[2,1-f][1,2,4]triazin-5-yl)piperidin-3-yl)-1H-indole-2-carboxamide] it was 0.195 µM; in that of `N#Cc1ccc(-c2cc(N3CCC[C@@H](NC(=O)c4cc5ccccc5[nH]4)C3)c3c(N)ncnn23)cn1` [Example 509, (R)-N-(1-(4-amino-7-(6-cyanopyridin-3-yl)pyrrolo[2,1-f][1,2,4]triazin-5-yl)piperidin-3-yl)-1H-indole-2-carboxamide], 0.021 µM; in that of `CC(C)Cn1cc(-c2cc(N3CCC[C@@H](NC(=O)c4ccc(C(F)F)s4)C3)c3c(N)ncnn23)ccc1=O` [Example 510, (R)-N-(1-(4-amino-7-(1-isobutyl-6-oxo-1,6-dihydropyridin-3-yl)pyrrolo[2,1-f][1,2,4]triazin-5-yl)piperidin-3-yl)-5-(difluoromethyl)thiophene-2-carboxamide], 0.044 µM.
